From the NIST ThermoML archive (doi:10.1016/j.fluid.2017.06.019)
Numbers after ± are expanded uncertainties.

Details: 364.65 K, Coaxial cylinder method

CCC [propane]
Details | thermal conductivity [W/m/K]
3818 kPa, Gas | 0.04192 ± 0.0026
3819 kPa, Gas | 0.04192 ± 0.0029
3820 kPa, Gas | 0.04192 ± 0.0029
3826 kPa, Gas | 0.04799 ± 0.004
3827 kPa, Gas | 0.05041 ± 0.0043
3828 kPa, Gas | 0.05375 ± 0.006
3829 kPa, Gas | 0.05683 ± 0.0063
3830 kPa, Gas | 0.05989 ± 0.0038
3831 kPa, Gas | 0.06347 ± 0.004
3832 kPa, Gas | 0.0673 ± 0.0043
3833 kPa, Gas | 0.07157 ± 0.0045
3834 kPa, Gas | 0.0754 ± 0.0048
3835 kPa, Gas | 0.07969 ± 0.0051
3836 kPa, Gas | 0.08397 ± 0.0054
3837 kPa, Gas | 0.08791 ± 0.0056
3838 kPa, Gas | 0.09202 ± 0.0059
3839 kPa, Gas | 0.09605 ± 0.0062
3840 kPa, Gas | 0.1002 ± 0.0065
3841 kPa, Gas | 0.1044 ± 0.0068
3842 kPa, Gas | 0.1088 ± 0.0071
3843 kPa, Gas | 0.1131 ± 0.0075
3844 kPa, Gas | 0.1173 ± 0.0078
3845 kPa, Gas | 0.1218 ± 0.0081
3846 kPa, Gas | 0.1263 ± 0.0085
3847 kPa, Gas | 0.1307 ± 0.0088
3848 kPa, Gas | 0.135 ± 0.0092
3849 kPa, Gas | 0.14 ± 0.0096
3850 kPa, Gas | 0.1445 ± 0.01
3851 kPa, Gas | 0.1491 ± 0.01
3852 kPa, Gas | 0.1538 ± 0.011
3853 kPa, Gas | 0.1584 ± 0.011
3854 kPa, Gas | 0.1635 ± 0.012
3855 kPa, Gas | 0.1693 ± 0.012
3856 kPa, Gas | 0.1732 ± 0.013
3857 kPa, Gas | 0.1782 ± 0.013
3858 kPa, Gas | 0.1831 ± 0.014
3859 kPa, Gas | 0.1881 ± 0.014
3860 kPa, Gas | 0.1933 ± 0.015
3861 kPa, Gas | 0.1983 ± 0.016
3862 kPa, Gas | 0.2036 ± 0.016
3863 kPa, Gas | 0.2089 ± 0.017
3864 kPa, Gas | 0.2141 ± 0.018
3865 kPa, Gas | 0.2194 ± 0.019
3866 kPa, Gas | 0.2249 ± 0.016
3867 kPa, Gas | 0.2303 ± 0.016
3868 kPa, Gas | 0.2361 ± 0.017
3869 kPa, Gas | 0.2404 ± 0.017
3870 kPa, Liquid | 0.2611 ± 0.024
3871 kPa, Liquid | 0.2548 ± 0.023
3872 kPa, Liquid | 0.249 ± 0.023
3873 kPa, Liquid | 0.2424 ± 0.022
3874 kPa, Liquid | 0.2366 ± 0.021
3875 kPa, Liquid | 0.2306 ± 0.021
3876 kPa, Liquid | 0.2246 ± 0.02
3877 kPa, Liquid | 0.2189 ± 0.02
3878 kPa, Liquid | 0.2127 ± 0.019
3879 kPa, Liquid | 0.2068 ± 0.019
3880 kPa, Liquid | 0.2008 ± 0.018
3881 kPa, Liquid | 0.1952 ± 0.018
3882 kPa, Liquid | 0.1898 ± 0.017
3883 kPa, Liquid | 0.1838 ± 0.017
3884 kPa, Liquid | 0.1778 ± 0.017
3885 kPa, Liquid | 0.1728 ± 0.017
3886 kPa, Liquid | 0.1668 ± 0.016
3887 kPa, Liquid | 0.1613 ± 0.015
3888 kPa, Liquid | 0.1556 ± 0.015
3889 kPa, Liquid | 0.1503 ± 0.015
3890 kPa, Liquid | 0.1444 ± 0.015
3891 kPa, Liquid | 0.1391 ± 0.015
3892 kPa, Liquid | 0.1337 ± 0.014
3893 kPa, Liquid | 0.1279 ± 0.014
3894 kPa, Liquid | 0.1224 ± 0.013
3895 kPa, Liquid | 0.117 ± 0.013
3896 kPa, Liquid | 0.1115 ± 0.013
3897 kPa, Liquid | 0.1061 ± 0.012
3898 kPa, Liquid | 0.1008 ± 0.012
3899 kPa, Liquid | 0.09527 ± 0.012
3900 kPa, Liquid | 0.08987 ± 0.012
3901 kPa, Liquid | 0.08442 ± 0.012
3902 kPa, Liquid | 0.07906 ± 0.011
3903 kPa, Liquid | 0.07632 ± 0.011
3904 kPa, Liquid | 0.0735 ± 0.011
3905 kPa, Liquid | 0.07087 ± 0.0048
3906 kPa, Liquid | 0.06861 ± 0.011
3907 kPa, Liquid | 0.06633 ± 0.01
3908 kPa, Liquid | 0.06424 ± 0.01
3909 kPa, Liquid | 0.06367 ± 0.0043
3910 kPa, Liquid | 0.06367 ± 0.01
3911 kPa, Liquid | 0.06367 ± 0.01
3912 kPa, Liquid | 0.06367 ± 0.0096
3913 kPa, Liquid | 0.06367 ± 0.0096
3914 kPa, Liquid | 0.06367 ± 0.0042
3915 kPa, Liquid | 0.0637 ± 0.0095
3920 kPa, Liquid | 0.06366 ± 0.0089
3925 kPa, Liquid | 0.06366 ± 0.0086
3930 kPa, Liquid | 0.06362 ± 0.0083
3935 kPa, Liquid | 0.06364 ± 0.0083
3940 kPa, Liquid | 0.06364 ± 0.0084
3945 kPa, Liquid | 0.06362 ± 0.0085
3950 kPa, Liquid | 0.06362 ± 0.0066
3955 kPa, Liquid | 0.06362 ± 0.0053
3960 kPa, Liquid | 0.06362 ± 0.0047
3965 kPa, Liquid | 0.06362 ± 0.0044
3970 kPa, Liquid | 0.06362 ± 0.0043
3975 kPa, Liquid | 0.0636 ± 0.0043
3980 kPa, Liquid | 0.0636 ± 0.0042
4000 kPa, Liquid | 0.06363 ± 0.0042
4020 kPa, Liquid | 0.06367 ± 0.0041
4040 kPa, Liquid | 0.06367 ± 0.0041
4060 kPa, Liquid | 0.06371 ± 0.0042
